Reference: PMC6995558, “Biological Evaluation, Molecular Docking, and SAR Studies of Novel 2-(2,4-Dihydroxyphenyl)-1H- Benzimidazole Analogues” (Biomolecules, 2019)

Columns and labels:
[1] = In vitro antioxidant activity assay (DPPH radical scavenging); conditions: DPPH 100 μM in methanol, 37 °C, 30 min; means ± SD of three experiments; read-out: IC50(DPPH) radical scavenging effect
Protocol: Antioxidant activity of each compound and standards (rutin) was assessed based on the radical scavenging effect of stable DPPH free radical. An amount of 10 μL of each tested compound or standard series of different concentrations (from 0.0 to 100 µM) was added to 9 mL of methanol solution of 2,2-diphenyl-1-picrylhydrazyl (DPPH) (100 μM). After incubation at 37 °C for 30 min, decrease in the absorbance of each solution was measured at 520 nm. The absorbance of the blank sample containing the same amount of DMSO and DPPH solution was also prepared and measured. All experiments were conducted in triplicate. The scavenging potential was compared with a solvent control (0% radical scavenging) and the standard compound. Radical scavenging activity (%AA) was calculated by the following formula: (%AA) = [(A0 − A1)/A0] × 100%(3) in which (A0) is the absorbance of the blank sample and (A1) is the absorbance of the tested compound (t = 30 min).
Reactive oxygen species are a causal factor in the process of aging and the cumulative damage has been associated with AD [45]. In this study, the DPPH radical scavenging activity of the newly synthesized compounds was estimated using the Brand-Williams method.

[2] = molecular target: T1, butyrylcholinesterase (BuChE, E.C. 3.1.1.8, from equine serum) (Equus caballus, UniProt P81908); test: biochemical; conditions: means ± SD of three experiments; read-out: BuChE IC50
T1 construct: butyrylcholinesterase (BuChE, E.C. 3.1.1.8, from equine serum); purchased Sigma-Aldrich (Steinheim, Germany); host or cells: equine serum (natural source)
T1 sequence (P81908 whole entry): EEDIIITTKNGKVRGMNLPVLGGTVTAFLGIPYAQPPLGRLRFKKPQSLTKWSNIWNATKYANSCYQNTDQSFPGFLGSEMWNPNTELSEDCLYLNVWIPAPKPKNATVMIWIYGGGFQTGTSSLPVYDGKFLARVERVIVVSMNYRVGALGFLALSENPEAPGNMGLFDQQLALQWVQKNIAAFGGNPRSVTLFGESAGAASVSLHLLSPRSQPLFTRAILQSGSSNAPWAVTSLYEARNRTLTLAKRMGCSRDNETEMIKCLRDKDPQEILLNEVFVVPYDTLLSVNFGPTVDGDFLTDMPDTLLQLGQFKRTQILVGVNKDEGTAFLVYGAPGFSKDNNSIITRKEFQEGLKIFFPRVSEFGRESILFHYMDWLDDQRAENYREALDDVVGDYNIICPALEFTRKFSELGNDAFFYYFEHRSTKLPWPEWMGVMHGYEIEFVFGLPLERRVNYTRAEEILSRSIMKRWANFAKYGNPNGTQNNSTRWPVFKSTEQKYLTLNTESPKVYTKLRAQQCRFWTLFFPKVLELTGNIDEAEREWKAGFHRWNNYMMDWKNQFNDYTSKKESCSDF
Protocol: (§1) The details were described previously.
(§2) Their potency was determined using the modified Ellman’s method and expressed as the half of maximal inhibitory concentration, IC50 [34].

[3] = RP-18 HPLC chromatography lipophilicity estimation; format: physicochemical; conditions: for −S (slope): methanol/acetate buffer pH 4.0; for log kw (intercept): methanol/acetate buffer pH 4.0, extrapolated to pure water
Protocol: The Eurosil Bioselect C18 (5 μm, 300 × 4.6 mm) column was used as the stationary phase. The mobile phase consisted of different volume mixtures of methanol and 20 mM acetate buffer as the aqueous phase to give pH 4.0. The organic modifier concentration ranged from 0.30 to 0.75, depending on the structure of the compound at 0.05 (0.1) intervals. The flow rate was 0.5 cm^3·min^−1 at room temperature. Measurements were made at 292 nm. The retention time of an unretained solute (t0) was determined by the injection of a small amount of acetone dissolved in water. […] This is described by the Soczewiński–Wachtmeister dependence: log k = log kw + S (% organic modifier)(1) in which log kw is the retention factor of a solute with pure water as the mobile phase (intercept) and S is the regression curve (slope). The log k values were calculated as log k = log (tR − t0)/t0, where tR is the retention time of a solute and t0 is the retention time of an unretained solute.
To find the structure–activity relationships, some quantities of the compounds were estimated (Table 5). They included the lipophilicity parameter log kw obtained by RP-HPLC and calculated in silico log P, the topological polar surface area (tPSA), and the molar refractivity (MR) (Table 5). The log kw and S parameters obtained by the extrapolation technique are commonly used as lipophilicity descriptors.

[4] = molecular target: T2, AChE (Homo sapiens, UniProt P22303); test: Kinetic characterization of AChE inhibition (Lineweaver–Burk); format: biochemical; conditions: for υmax: AChE; for Type of AChE inhibition: Lineweaver–Burk plots analysis
T2 construct: Acetylcholinesterase (AChE, E.C. 3.1.1.7, from human erythrocytes); purchased Sigma-Aldrich (Steinheim, Germany); host or cells: human erythrocytes (natural source)
T2 sequence (P22303 32-617 isoform P22303-2 limits assumed): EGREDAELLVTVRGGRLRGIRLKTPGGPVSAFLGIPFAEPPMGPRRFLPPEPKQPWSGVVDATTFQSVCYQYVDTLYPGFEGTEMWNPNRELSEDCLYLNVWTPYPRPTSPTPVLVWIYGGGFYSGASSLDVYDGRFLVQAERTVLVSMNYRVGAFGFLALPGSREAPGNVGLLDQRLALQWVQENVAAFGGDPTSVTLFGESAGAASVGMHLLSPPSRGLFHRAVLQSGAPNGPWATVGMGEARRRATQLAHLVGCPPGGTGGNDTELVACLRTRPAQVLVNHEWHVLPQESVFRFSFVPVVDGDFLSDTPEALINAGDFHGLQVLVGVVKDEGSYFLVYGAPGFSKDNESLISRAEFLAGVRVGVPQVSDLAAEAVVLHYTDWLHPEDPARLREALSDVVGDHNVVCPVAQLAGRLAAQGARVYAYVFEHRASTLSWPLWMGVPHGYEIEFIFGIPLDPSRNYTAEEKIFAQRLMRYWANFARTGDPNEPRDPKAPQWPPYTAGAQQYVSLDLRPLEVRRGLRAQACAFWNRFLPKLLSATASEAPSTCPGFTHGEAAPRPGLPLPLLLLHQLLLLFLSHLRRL
Protocol: The kinetic analysis was evaluated according to the Ellman’s method. Plots of 1/velocity versus the reciprocal substrate concentration were constructed at different final concentrations of the ATC iodide in the range of 100–10 µM. […] The tested medium contained DTNB solution (0.4 mg/mL), AChE solution (2 U/mL) or BuChE solution (4 U/mL), solution of the examined compound, and different concentrations of the ATC iodide substrate solution. Absorbance was detected at 412 nm at room temperature after 7 min. The obtained data were calculated and presented on the Lineweaver–Burk plot. The determined the Michaelis-Menten constant (KM) and the maximum velocity of the enzyme (υmax) values were used to define the type of enzyme inhibition.
The mechanism of AChE inhibition was investigated for inhibitors 1 and 5 as the most valuable compounds. […]

[5] = molecular target: T3, Amyloid β-peptide (1–42) (Aβ42) (Homo sapiens, UniProt P05067); test: biochemical; conditions: ThT fluorescence, 24 h at 37 °C; means ± SD of three experiments; read-out: IC50(Aβ(1–42)) self-induced aggregation
T3 construct: Amyloid β-peptide, (1–42) (Aβ42), was purchased from Aldrich; purchased Aldrich
T3 sequence (P05067 672-713 limits assumed): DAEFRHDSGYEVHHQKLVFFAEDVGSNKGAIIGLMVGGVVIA
Protocol: Amyloid β-peptide, (1–42) (Aβ42), was purchased from Aldrich. Aβ42 was diluted in the phosphate buffer (pH 8.0) to obtain a 125.8 µM solution. The compounds under study were first dissolved in a small amount of methanol, and then further diluted in the phosphate buffer to the final concentration of 5–160 μM. To study the Aβ42 aggregation inhibition, the fluorescence emission of thioflavin T (ThT) was followed with curcumin as the reference compound [35, 36]. At first, the Aβ42 (10 μL) samples and the tested compounds (10 μL) were diluted with the phosphate buffer (60 μL) and then they were incubated for 24 h at 37 °C without stirring. As for the control, a sample of the peptide was incubated without the inhibitor. The tests were carried out in black, flat-bottom, 96-well plates. Then 20 µL of 2.5 µM ThT in 50 mM glycine–NaOH (pH 8.5) was added and incubated for 5 min. Fluorescence was monitored with the excitation at 446 nm and the emission at 490 nm. A time scan of fluorescence was performed and the intensity values reached the plateau (300 s). […]. The reported values were obtained as the mean ± SD of triplicate of three independent experiments.
Nowadays, the amyloid hypothesis has become the dominating paradigm for understanding AD [44]. Aβ(1–42) is the most amyloidogenic Aβ fragment found in the AD plaques. […].

[6] = molecular target: T4, Acetylcholinesterase (AChE, E.C. 3.1.1.7, from human erythrocytes) (Homo sapiens, UniProt P22303); test: biochemical; format: biochemical; conditions: for Selectivity for AChE: IC50(BuChE)/IC50(AChE); for IC50: means ± SD of three independent experiments
T4 construct: Acetylcholinesterase (AChE, E.C. 3.1.1.7, from human erythrocytes); purchased Sigma-Aldrich (Steinheim, Germany); host or cells: human erythrocytes (natural source)
T4 sequence (P22303 32-617 isoform P22303-2 limits assumed): as the sequence (P22303 32-617 isoform P22303-2 limits assumed) above
Protocol: as §1, §2

[7] = molecular target: T5, BuChE (Equus caballus, UniProt P81908); test: Kinetic characterization of BuChE inhibition (Lineweaver–Burk); format: biochemical; conditions: for υmax: BuChE; for Mechanism of BuChE inhibition: Lineweaver–Burk plots analysis
T5 construct: butyrylcholinesterase (BuChE, E.C. 3.1.1.8, from equine serum); purchased Sigma-Aldrich (Steinheim, Germany); host or cells: equine serum (natural source)
T5 sequence (P81908 whole entry): as the sequence (P81908 whole entry) above
Protocol: The kinetic analysis was evaluated according to the Ellman’s method. Plots of 1/velocity versus the reciprocal substrate concentration were constructed at different final concentrations of the ATC iodide in the range of 100–10 µM. The studies were carried out using the final concentrations of 1 inhibitor: (AChE: 0.25, 1.0 µM; BuChE: 0.25, 1.2 µM) and 5 (AChE: 0.1, 1.0 µM; BuChE: 0.25, 0.55 µM) and without it. The tested medium contained DTNB solution (0.4 mg/mL), AChE solution (2 U/mL) or BuChE solution (4 U/mL), solution of the examined compound, and different concentrations of the ATC iodide substrate solution. Absorbance was detected at 412 nm at room temperature after 7 min. The obtained data were calculated and presented on the Lineweaver–Burk plot. The determined the Michaelis-Menten constant (KM) and the maximum velocity of the enzyme (υmax) values were used to define the type of enzyme inhibition.
The mechanism of AChE inhibition was investigated for inhibitors 1 and 5 as the most valuable compounds. The Lineweaver–Burk plots present 1/velocity versus 1/substrate concentrations in the range of 100–10 µM for compounds 5 (0.1, 1.0 µM) and 1 (0.25, 1.0 µM) and without inhibitors (0 µM) (Figure 2).

[8] = inhibitor concentration 0.25 µM

SMILES | IC50 [1] [nM] | IC50 [2] [nM] | −S (slope) [3] | log kw (intercept) [3] | υmax ([4]; inhibitor concentration 0.25 μM) [A min^−1] | υmax ([4]; inhibitor concentration 1.0 μM) [A min^−1] | Type of AChE inhibition [4] | IC50 [5] [nM] | Activity against AChE (in words) [6] | Selectivity for AChE [6] | IC50 [6] [nM] | υmax [7, 8] [A min^−1] | υmax ([7]; inhibitor concentration 1.2 µM) [A min^−1] | Mechanism of BuChE inhibition [7] | υmax ([4]; inhibitor concentration 0.15 μM) [A min^−1] | υmax ([7]; inhibitor concentration 0.55 µM) [A min^−1]
Oc1cc(O)c(-c2nc3ccccc3[nH]2)cc1Cl [Compound 1, 4-(1H-benzimidazol-2-yl)-6-chlorobenzene-1,3-diol] | 641 ± 30 | 4240 ± 205 | 3.896 | 3.602 | 135.14 | 105.26 | mixed type of inhibition | 48000 ± 3430 | active | 55.8 | 76 ± 2 | 322.58 | 163.93 | the same relationships as in the case of AChE |  | 
COc1ccc2nc(-c3ccc(O)c(C)c3O)[nH]c2c1 [Compound 5, 4-(6-Methoxy-1H-benzimidazol-2-yl)-2-methylbenzene-1,3-diol] | 627 ± 110 | 117 ± 41 | 5.179 | 4.591 |  | 120.48 | mixed type of inhibition | 33100 ± 2070 | active | 1.4 | 86 ± 21 | 196.08 |  | the same relationships as in the case of AChE | 175.44 | 178.57
